# Values of other authors, collected in patent publication US20080253966A1, “Diagnostic, Prognostic, and Therapeutic Factor Smac/Diablo in Human Cancer” (The Regents of The University of California, priority 2004, published 2008).
# Test system: cell lines treated with paclitaxel, etoposide, camptothecin, and doxorubicine
substance,measurement,value
"first four amino acids of Smac/DIABLO: the first four amino acids of Smac/DIABLO (Arnt et al., J. Biol. Chem. 2002) (AVPI; UniProt Q9NR28 56-59, looked up, fragment)",effect on apoptosis,increased apoptosis
